Source: US9546153B2, “Bicyclic heterocycle substituted pyridyl compounds useful as kinase modulators” (BRISTOL-MYERS SQUIBB COMPANY, priority 2012, dated 2017)
Read-outs that look alike come from different tables or passages of the source.

How the values were obtained:
IRAK4 = IRAK4 (Homo sapiens (Human), UniProt Q9NWZ3); assay: IRAK4 Inhibition Assay; type: biochemical; details: ATP 500 μM; IRAK4 0.6 nM; 60 min at room temperature
Procedure: The assays were performed in U-bottom 384-well plates. […] The reaction was initiated by the combination of IRAK4 with substrates and test compounds. The reaction was incubated at room temperature for 60 min. and terminated by adding 45 μL of 35 mM EDTA to each sample. The reaction mixture was analyzed on the Caliper LABCHIP® 3000 (Caliper, Hopkinton, Mass.) by electrophoretic separation of the fluorescent substrate and phosphorylated product.

[1] = system: TLR2 induced IL-6 in peripheral blood mononuclear cells (PBMCs); assay: PBMC TLR2 Induced IL-6 Assay; type: cell-based, human; details: human PBMCs, 10 μg/ml lipoteichoic acid for 5 hours, IL-6 by ELISA, value without asterisk, read-out: Cell IC50
Summary of the method: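 Human PBMCs (250000 cells/well) in RPMI with 10% heat-inactivated FCS pre-treated with compound for 30 min at 37° C, then stimulated 5 h with 10 μg/ml lipoteichoic acid. Supernatant IL-6 measured by ELISA and reported as IC50 or EC50.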

IRAK4, sequence (Q9NWZ3 whole entry, species assumed): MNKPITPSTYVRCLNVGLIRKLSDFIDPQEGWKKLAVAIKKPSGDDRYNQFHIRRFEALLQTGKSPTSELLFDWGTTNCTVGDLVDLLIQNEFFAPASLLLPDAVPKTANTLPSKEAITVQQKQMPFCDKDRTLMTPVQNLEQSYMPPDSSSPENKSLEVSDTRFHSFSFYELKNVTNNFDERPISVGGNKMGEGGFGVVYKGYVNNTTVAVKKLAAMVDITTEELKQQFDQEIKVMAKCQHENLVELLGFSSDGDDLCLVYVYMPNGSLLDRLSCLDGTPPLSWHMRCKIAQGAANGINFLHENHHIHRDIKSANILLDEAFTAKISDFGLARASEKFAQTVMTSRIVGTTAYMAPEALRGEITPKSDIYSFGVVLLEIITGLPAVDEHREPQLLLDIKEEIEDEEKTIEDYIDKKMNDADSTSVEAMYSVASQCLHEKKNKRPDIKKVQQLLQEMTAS

Row | SMILES | IC50 (IRAK4) | IC50 ([1]; Homo sapiens, PBMC, 5 h) | IC50 [1]
1 | CC(C)(O)[C@H](F)CNC(=O)c1cnc(Nc2ccc3nccn3n2)cc1NC1CCC1 [Example 272] | 4.8 nM | 175 nM | –
2 | CC(C)C(O)[C@H](F)CNC(=O)c1cnc(Nc2ccc3ncsc3c2)cc1N[C@@H]1CCC[C@H]1O (some centres unmarked) [Example 332] | 3.1 nM | – | 791 nM
3 | Cc1cc2nc(Nc3cc(NC4CCC(F)C4)c(C(=O)NC[C@@H](F)C(C)(C)O)cn3)ccn2n1 (some centres unmarked) [Example 268] | 6.1 nM | – | 376 nM
4 | CC(C)(O)[C@H](F)CNC(=O)c1cnc(Nc2ccc3ncsc3c2)cc1NC1C2CCCC21 (some centres unmarked) [Example 109] | 5.8 nM | – | 454 nM
5 | CC(C)(F)CNc1cc(Nc2ccn3nccc3n2)ncc1C(=O)NC[C@@H](F)C(C)(C)O [Example 253] | 5.2 nM | 308 nM | –
6 | CCC(C)Nc1cc(Nc2ccc3ncsc3c2)ncc1C(=O)NC[C@@H](F)C(C)(C)O (some centres unmarked) [Example 137] | 3.6 nM | 528 nM | –
7 | CC(C)(O)[C@H](F)CNC(=O)c1cnc(Nc2nc3ccnn3cc2F)cc1NC1CCOCC1F (some centres unmarked) [Example 436] | 4.9 nM | 346 nM | –
8 | CC(=O)N[C@H]1CC[C@H](NC(=O)c2cnc(Nc3nc4ccnn4cc3F)cc2NC2CCOCC2)CC1 [Example 513] | 9.4 nM | 1570 nM | –
9 | CC(=O)N[C@H](C)CCNC(=O)c1cnc(Nc2ccc3ncsc3c2)cc1NC(C)C [Example 180] | 3.7 nM | 415 nM | –
10 | CC(C)Nc1cc(Nc2ccc3ncsc3c2)ncc1C(=O)NCC[C@@H](C)NC(=O)N(C)c1ccccc1 [Example 208] | 3.7 nM | 647 nM | –
11 | CC(=O)NCCCNC(=O)c1cnc(Nc2ccc3ncsc3c2)cc1NC(C)C [Example 199] | 8.4 nM | 551 nM | –
12 | CC(C)(O)[C@H](F)CNC(=O)c1cnc(Nc2ccc3ncsc3c2)cc1NC1CCOCC1 [Example 52] | 2.7 nM | 116 nM | –
13 | CC1(O)CCC(NC(=O)c2cnc(Nc3ccc4ncsc4c3)cc2NC2CC2)CC1 (centres unmarked) [Example 169, 6-(benzo[d]thiazol-6-ylamino)-4-(cyclopropylamino)-N-(4-hydroxy-4-methylcyclohexyl)nicotinamide] | 2.8 nM | 480 nM | –
14 | CC(C)Nc1cc(Nc2ccc3ncsc3c2)ncc1C(=O)N[C@H]1CC[C@H](NC(=O)c2ccncc2)CC1 [Example 207] | 1.7 nM | 158 nM | –
15 | CC(C)(O)[C@H](F)CNC(=O)c1cnc(Nc2ccc3ncccc3n2)cc1NC1CCCC1F (some centres unmarked) [Example 405] | 5.8 nM | – | 788 nM
16 | CC(C)(O)[C@H](F)CNC(=O)c1cnc(Nc2ccc3ncsc3c2)cc1Nc1cccc(CCO)c1 [Example 59] | 6 nM | 99 nM | –
17 | CNC(=O)[C@H]1CC[C@H](NC(=O)c2cnc(Nc3ccc4ncsc4c3)cc2NCC(F)(F)F)CC1 [Example 506] | 6.5 nM | 320 nM | –
18 | CC(C)(O)[C@H](F)CNC(=O)c1cnc(Nc2nc3scnc3cc2F)cc1NC1CCCC1F (some centres unmarked) [Example 461] | 2 nM | 147 nM | –
19 | COc1ncnc2ccc(Nc3cc(NC4CCOCC4)c(C(=O)NC[C@@H](F)C(C)(C)O)cn3)cc12 [Example 124] | 3.9 nM | 420 nM | –
20 | CC(C)(O)C(F)CNC(=O)c1cnc(Nc2ccc3ncsc3c2)cc1NC1CC(C(F)F)C1 (centres unmarked) [Example 361, 4-(3-(difluoromethyl)cyclobutylamino)-6-(3a,27a-dihydrobenzo[d]thiazol-6-ylamino)-N-(2-fluoro-3-hydroxy-3-methylbutyl)nicotinamide] | 6.9 nM | – | 176 nM
21 | CC(C)(O)[C@H](F)CNC(=O)c1cnc(Nc2cc3scnc3cc2F)cc1NC1CCCOC1 (some centres unmarked) [Example 518] | 3.8 nM | – | 1840 nM
22 | CC(C)(O)[C@H](F)CNC(=O)c1cnc(Nc2ccc3ncc(C(N)=O)cc3n2)cc1NC1CCC1 [Example 444] | 2.3 nM | 55 nM | –
23 | CC(=O)N[C@H]1CC[C@H](NC(=O)c2cnc(Nc3ccc4ncsc4c3)cc2N[C@H]2CCOC[C@@H]2F)CC1 [Example 511] | 4.2 nM | 611 nM | –
24 | CC(C)(O)c1cnc(Nc2cc(Nc3ccn4nccc4n3)ncc2C(=O)NC[C@@H](F)C(C)(C)O)s1 [Example 421] | 3.3 nM | 131 nM | –
25 | CC(C)(O)[C@H](F)CNC(=O)c1cnc(Nc2ccc3nccnc3c2)cc1NC1CCCC1F (some centres unmarked) [Example 348] | 6.7 nM | 562 nM | –
26 | Cc1cc2nc(Nc3cc(NC4CCC(F)C4)c(C(=O)NC[C@@H](F)C(C)(C)O)cn3)ccn2n1 (single isomer, unassigned) [Example 381] | 6.1 nM | 376 nM | –
27 | CC(C)(O)[C@H](F)CNC(=O)c1cnc(Nc2ccn3nccc3n2)cc1NC1CCC(F)C1 (some centres unmarked) [Example 255] | 2.4 nM | – | 86 nM
28 | CC(O)([C@H](F)CNC(=O)c1cnc(Nc2ccc3ncsc3c2)cc1NC1CC1)C(F)(F)F (some centres unmarked) [Example 20] | 4.9 nM | – | 562 nM

Row | SMILES | IC50 (IRAK4) | IC50 ([1]; Homo sapiens, PBMC, 5 h) | IC50 [1]
29 | CC(C)(O)[C@H](F)CNC(=O)c1cnc(Nc2ccn3nccc3n2)cc1NC1CCC(F)C1 (some centres unmarked) [Example 254] | 2.5 nM | – | 131 nM
30 | CC(C)(O)[C@H](F)CNC(=O)c1cnc(Nc2ccn3nccc3n2)cc1NC1CCOCC1 [Example 237] | 3.1 nM | 222 nM | –
31 | CC(C)(C)Nc1cc(Nc2ccn3nccc3c2)ncc1C(=O)NC[C@@H](F)C(C)(C)O [Example 291] | 7 nM | 283 nM | –
32 | CC(C)(O)[C@H](F)CNC(=O)c1cnc(Nc2nc3ccnn3cc2F)cc1NC1CC1 [Example 368] | 5.3 nM | – | 445 nM
33 | CC(C)CNc1cc(Nc2ccc3ncsc3c2)ncc1C(=O)NC[C@@H](F)C(C)(C)O [Example 162] | 3.6 nM | 48 nM | –
34 | CC(C)Nc1cc(Nc2ccc3ncsc3c2)ncc1C(=O)NC1CCCC(C(C)(C)O)C1 (centres unmarked) [Example 425] | 13.1 nM | 560 nM | –
35 | CC(C)(O)[C@H](F)CNC(=O)c1cnc(Nc2ccn3nccc3c2)cc1NC1CCC(F)(F)C1 (some centres unmarked) [Example 293] | 1.8 nM | 310 nM | –
36 | CNC(=O)c1cnc(Nc2ccc3c(c2)C(F)(F)C(=O)N3)cc1NC1CCCC1 [Example 1, 4-(cyclopentylamino)-6-(3,3-difluoro-2-oxoindolin-5-ylamino)-N-methylnicotinamide] | 4.4 nM | 612 nM | –
37 | CC(C)Nc1cc(Nc2ccc3ncsc3c2)ncc1C(=O)NCC[C@@H](C)NC(=O)CC1CCCCC1(F)F (some centres unmarked) [Example 188] | 2.5 nM | 508 nM | –
38 | CC(C)(F)CNc1cc(Nc2cc3scnc3cc2F)ncc1C(=O)NC[C@@H](F)C(C)(C)O [Example 454] | 2.8 nM | 38 nM | –
39 | CC(C)(O)[C@H](F)CNC(=O)c1cnc(Nc2ccn3nccc3n2)cc1NC1CCCC1F (some centres unmarked) [Example 246] | 5.5 nM | – | 262 nM
40 | CC(O)([C@H](F)CNC(=O)c1cnc(Nc2ccc3ncsc3c2)cc1N[C@@H]1CCC[C@H]1O)C(F)(F)F (some centres unmarked) [Example 333] | 4.1 nM | – | 152 nM
41 | CC(C)(O)[C@H](F)CNC(=O)c1cnc(Nc2ccc3ncsc3c2)cc1NC1CC2CCC1C2 (some centres unmarked) [Example 89] | 2.6 nM | 32 nM | –
42 | O=C(NCCN1CCCC1)c1cnc(Nc2ccc3ncsc3c2)cc1NC1CCCC1 [Example 151] | 4.2 nM | 191 nM | –
43 | CC(C)(O)[C@H](F)CNC(=O)c1cnc(Nc2ccn3nccc3n2)cc1NC1CCSCC1 [Example 385] | 4.3 nM | 135 nM | –
44 | CC(C)Nc1cc(Nc2ccc3ncsc3c2)ncc1C(=O)N[C@H]1CC[C@H](C(=O)NC23CCC(O)(CC2)C3)CC1 [Example 220] | 3.4 nM | 328 nM | –
45 | CC(C)(O)[C@H](F)CNC(=O)c1cnc(Nc2ccc3nccn3n2)cc1NC1CCCC1F (some centres unmarked) [Example 273] | 2.4 nM | 764 nM | –
46 | CC(C)(F)CNc1cc(Nc2ccn3ncc(F)c3n2)ncc1C(=O)NC[C@@H](F)C(C)(C)O [Example 257] | 3.1 nM | 321 nM | –
47 | CC(C)(F)CNc1cc(Nc2ccn3nccc3c2)ncc1C(=O)NC[C@@H](F)C(C)(C)O [Example 294] | 4.7 nM | 416 nM | –
48 | CC(CO)Nc1cc(Nc2ccc3ncsc3c2)ncc1C(=O)NC[C@@H](F)C(C)(C)O (some centres unmarked) [Example 39] | 5.3 nM | 503 nM | –
49 | CC(C)Nc1cc(Nc2ccc3ncsc3n2)ncc1C(=O)NC[C@@H](F)C(C)(C)O [Example 309] | 1.9 nM | 61 nM | –
50 | CC(O)([C@H](F)CNC(=O)c1cnc(Nc2ccc3ncsc3c2)cc1N[C@@H]1CCC[C@H]1O)C(F)(F)F (some centres unmarked) [Example 334] | 4.5 nM | – | 321 nM
51 | CC(C)Nc1cc(Nc2nc3ccnn3cc2F)ncc1C(=O)NC[C@@H](F)C(C)(C)O [Example 367, (R)—N-(2-fluoro-3-hydroxy-3-methylbutyl)-6-((6-fluoropyrazolo[1,5-a]pyrimidin-5-yl)amino)-4-(isopropylamino)nicotinamide] | 4.8 nM | 569 nM | –
52 | CC(C)(O)[C@H](F)CNC(=O)c1cnc(Nc2ccc3ncsc3c2)cc1NC1CCOCC1F (some centres unmarked) [Example 230] | 5.1 nM | – | 274 nM
53 | CC(C)(O)[C@H](F)CNC(=O)c1cnc(Nc2ccn3nccc3n2)cc1NC1CC1 [Example 236] | 4.7 nM | 346 nM | –
54 | CC(CO)Nc1cc(Nc2nc3scnc3cc2F)ncc1C(=O)NC[C@@H](F)C(C)(C)O (some centres unmarked) [Example 459] | 3.4 nM | – | 141 nM
55 | CC(C)(O)[C@H](F)CNC(=O)c1cnc(Nc2ccc3nsnc3c2)cc1N[C@@H](c1ccccc1)[C@H](O)CO [Example 102] | 2.9 nM | 312 nM | –
